Patent publication US20060235076A1, “Medicinal composition for treating infection with drug-resistant staphylococcus aureus” (priority 2003, published 2006)
≈ marks a conversion by molar mass, not a printed value. Entries after “also recorded” stand apart in the source; their conditions may differ. Like-named read-outs stand apart in the source and are kept apart here.

Tests used:
MRSA and MSSA = test: Antibacterial activity of gallic acid, various gallates and multivalent phenol derivatives alone (agar plate dilution method, MIC); type: cell-based, Staphylococcus aureus; conditions: Staphylococcus aureus
Protocol: (§1) According to the agar plate dilution method defined by Japan Society of Chemotherapy, MIC (Minimum inhibitory concentration) was determined. CAMHA was prepared by adding 50 mg/l of Ca-ion, 25 mg/l of Mg-ion, and 2% of NaCl to Mueller-Hinton II Agar (MHA), and it was used as a medium for use in the measurement of sensitivity. The bacterial liquid was incubated at 37° C. overnight and diluted to 10^6 CFU/ml with saline.
MIC for gallic acid, various gallates and multivalent phenol derivatives alone with MRSA and MSSA were determined as described in experiment 2.

MRSA = test: Potentiating effect of galloyl quinic acid derivatives for the antibacterial activity of oxacillin (agar plate dilution method, MIC); type: cell-based, Staphylococcus aureus
Protocol: as §1
It was confirmed that the known substances shown below were contained in “Tara” and their MICs were determined as described in example 2 with respect to the effects of the combination use with oxacillin

[1] = ATCC 6538 / MRSA / MSSA, ATCC6538, compound alone, read-out: MIC
[2] = COL, compound alone, read-out: MIC
[3] = MRSA #1, compound alone, read-out: MIC
[4] = MRSA #2, compound alone, read-out: MIC
[5] = MRSA #3, compound alone, read-out: MIC
[6] = MRSA #4, compound alone, read-out: MIC
[7] = MRSA #5, compound alone, read-out: MIC
[8] = MRSA #6, compound alone, read-out: MIC
[9] = MRSA #7, compound alone, read-out: MIC
[10] = MRSA #8, compound alone, read-out: MIC
[11] = MRSA #9, compound alone, read-out: MIC
[12] = MRSA #10, compound alone, read-out: MIC
[13] = MRSA #12, compound alone, read-out: MIC
[14] = MRSA #16, compound alone, read-out: MIC
[15] = MRSA #17, compound alone, read-out: MIC
[16] = MRSA #18, compound alone, read-out: MIC
[17] = MRSA #20, compound alone, read-out: MIC
[18] = MRSA #21, compound alone, read-out: MIC
[19] = MRSA #22, compound alone, read-out: MIC
[20] = MRSA #24, compound alone, read-out: MIC
[21] = MSSA #1003, compound alone, read-out: MIC
[22] = MSSA #1010, compound alone, read-out: MIC
[23] = MSSA #1020, compound alone, read-out: MIC
[24] = MSSA #1023, compound alone, read-out: MIC
[25] = MSSA #1029, compound alone, read-out: MIC
[26] = MSSA #1032, compound alone, read-out: MIC
[27] = over all strains of Table 3-2, compound alone, read-out: MIC50

Row | SMILES | MIC (MRSA and MSSA; [2]) [µg/mL] | MIC (MRSA and MSSA; [3]) [µg/mL] | MIC (MRSA and MSSA; [4]) [µg/mL] | MIC (MRSA and MSSA; [5]) [µg/mL] | MIC (MRSA and MSSA; [6]) [µg/mL] | MIC (MRSA and MSSA; [7]) [µg/mL] | MIC (MRSA and MSSA; [8]) [µg/mL] | MIC (MRSA and MSSA; [9]) [µg/mL] | MIC (MRSA and MSSA; [10]) [µg/mL] | MIC (MRSA and MSSA; [11]) [µg/mL] | MIC (MRSA and MSSA; [12]) [µg/mL] | MIC (MRSA and MSSA; [13]) [µg/mL] | MIC (MRSA and MSSA; [14]) [µg/mL] | MIC (MRSA and MSSA; [15]) [µg/mL] | MIC (MRSA and MSSA; [16]) [µg/mL] | MIC (MRSA and MSSA; [17]) [µg/mL] | MIC (MRSA and MSSA; [18]) [µg/mL] | MIC (MRSA and MSSA; [19]) [µg/mL] | MIC (MRSA and MSSA; [20]) [µg/mL] | MIC (MRSA and MSSA; [21]) [µg/mL] | other results
1 | CC(=O)c1ccc(O)c(O)c1O [2′,3′,4′-trihydroxyacetophenone] | 62.5 (≈ 372 µM) | 62.5 (≈ 372 µM) | 62.5 (≈ 372 µM) | 62.5 (≈ 372 µM) | 62.5 (≈ 372 µM) | 62.5 (≈ 372 µM) | 31.3 (≈ 186 µM) | 62.5 (≈ 372 µM) | 62.5 (≈ 372 µM) | 62.5 (≈ 372 µM) | 31.3 (≈ 186 µM) | 62.5 (≈ 372 µM) | 62.5 (≈ 372 µM) | 62.5 (≈ 372 µM) | 62.5 (≈ 372 µM) | 62.5 (≈ 372 µM) | 62.5 (≈ 372 µM) | 62.5 (≈ 372 µM) | 62.5 (≈ 372 µM) | 62.5 (≈ 372 µM) | MIC (MRSA and MSSA; [1]): 62.5 µg/mL (≈ 372 µM); MIC (MRSA and MSSA; [22]): 62.5 µg/mL (≈ 372 µM); MIC (MRSA and MSSA; [23]): 62.5 µg/mL (≈ 372 µM); MIC (MRSA and MSSA; [24]): 31.3 µg/mL (≈ 186 µM); MIC (MRSA and MSSA; [25]): 31.3 µg/mL (≈ 186 µM); MIC (MRSA and MSSA; [26]): 62.5 µg/mL (≈ 372 µM); MIC50 (MRSA and MSSA; [27]): 62.5 µg/mL (≈ 372 µM)
2 | CCCC(=O)c1cc(O)c(O)cc1O [2′,4′,5′-trihydroxybutyrophenone] | 125 (≈ 637 µM) | 62.5 (≈ 319 µM) | 125 (≈ 637 µM) | 62.5 (≈ 319 µM) | 125 (≈ 637 µM) | 62.5 (≈ 319 µM) | 62.5 (≈ 319 µM) | 62.5 (≈ 319 µM) | 125 (≈ 637 µM) | 62.5 (≈ 319 µM) | 62.5 (≈ 319 µM) | 125 (≈ 637 µM) | 62.5 (≈ 319 µM) | 125 (≈ 637 µM) | 125 (≈ 637 µM) | 125 (≈ 637 µM) | 125 (≈ 637 µM) | 125 (≈ 637 µM) | 125 (≈ 637 µM) | 125 (≈ 637 µM) | MIC50 (MRSA and MSSA): 125 µg/mL (≈ 637 µM); MIC (MRSA and MSSA; ATCC 6538 / MRSA / MSSA): 125 µg/mL (≈ 637 µM); MIC (MRSA and MSSA; [22]): 125 µg/mL (≈ 637 µM); MIC (MRSA and MSSA; [23]): 125 µg/mL (≈ 637 µM); MIC (MRSA and MSSA; [24]): 62.5 µg/mL (≈ 319 µM); MIC (MRSA and MSSA; [25]): 62.5 µg/mL (≈ 319 µM); MIC (MRSA and MSSA; [26]): 62.5 µg/mL (≈ 319 µM)
3 | O=C(OC1CC(O)(C(=O)O)CC(OC(=O)c2cc(O)c(O)c(O)c2)C1OC(=O)c1cc(O)c(O)c(O)c1)c1cc(O)c(O)c(O)c1 (centres unmarked) [3,4,5-trigalloylquinic acid] | – | – | – | – | – | – | – | – | – | – | – | – | – | – | – | – | – | – | – | – | effect of combination use with oxacillin (words) (MRSA): excellent; also recorded: most potent
4 | O=C(OC1CC(O)(C(=O)O)CC(O)C1OC(=O)c1cc(O)c(O)c(O)c1)c1cc(O)c(O)c(O)c1 (centres unmarked) [3,4-digalloylquinic acid] | – | – | – | – | – | – | – | – | – | – | – | – | – | – | – | – | – | – | – | – | effect of combination use with oxacillin (words) (MRSA): weak effects
5 | CCCCCCCCCCCCCCCCOC(=O)c1cc(O)c(O)c(O)c1 [Cetyl gallate] | 250 (≈ 634 µM) | > 250 | 250 (≈ 634 µM) | > 250 | > 250 | > 250 | 125 (≈ 317 µM) | > 250 | > 250 | > 250 | 125 (≈ 317 µM) | > 250 | > 250 | > 250 | > 250 | > 250 | > 250 | > 250 | > 250 | > 250 | MIC (MRSA and MSSA; [1]): > 250 µg/mL; MIC (MRSA and MSSA; [22]): > 250 µg/mL; MIC (MRSA and MSSA; [23]): > 250 µg/mL; MIC (MRSA and MSSA; [24]): > 250 µg/mL; MIC (MRSA and MSSA; [25]): 250 µg/mL (≈ 634 µM); MIC (MRSA and MSSA; [26]): 250 µg/mL (≈ 634 µM); MIC50 (MRSA and MSSA; [27]): > 250 µg/mL
